Experimental findings from patent publication US9821000B2, “Compounds, compositions and corresponding uses for preventing and/or treating of dyslipidemia” (CENTRE NATIONAL DE LA RECHERCHE SCIENTIFIQUE (CNRS), priority 2013, dated 2017) are described below.

Entries after “also recorded” stand apart in the source; their conditions may differ.

The test system of one data set is hem1Δ yeasts. The experiment in a line: Restoration of growth of lipo-intoxicated hem1Δ yeasts (drop test on agar). It counts as cell-based, Saccharomyces cerevisiae. As to conditions: SFA accumulation conditions; 5 μl drops on agar; after three days. As for the experimental part: FIG. 3B—The hem1Δ yeasts were cultivated in conditions of SFA accumulation as indicated. 5 μl drops of OAG, LPA and oleic acid in the concentrations indicated were then deposited on the surface of the agar medium. The restoration of growth of the hem1Δ yeasts is observed in the formation of colonies after three days.
The strain carrying the hem1Δ strain is cultivated, under aerobic conditions, under stirring and at 28° C., in a YPG^A liquid medium (YPG (yeast extract 1% (m/v), peptone 1% (m/v) and glucose 2% (m/v)) supplemented with δ-aminolevulinic acid (ALA) at 80 μg/mL). Lipotoxicity by saturated fatty acids (SFA) is prompted by depletion of unsaturated fatty acids (UFA)—the synthesis of which is dependent on the presence of haem (prosthetic grouping of the enzyme Ole1p especially)—by transfer into YPG^+ medium (YPG supplemented with ergosterol at 80 μg/mL to compensate for the depletion in sterol obtained under these conditions). The lipotoxicity can be induced in a solid medium YPG^++agar 2% (m/v) in transferring 3500 cells (hem1Δ coming from a pre-culture in YPG^A)/cm^2 or *alternatively in a liquid medium in inoculating 2·10^6 cells/mL of YPG^+. Classically, the effects of lipotoxicity on SFA are analyzed 7 h after the transfer into YPG^+ medium. The capacity of a compound to counter the deleterious effects of lipotoxicity with SFA is for its part evaluated successively with the addition of this compound on (or in) the YPG^+ transfer medium after seeding with cells.
1) Screening of compounds: Following the induction of lipotoxicity with SFA (for hem1Δ cultivated in a solid medium), 5 μL drops of solutions of different compounds at 10 mM in dimethylsulfoxide (DMSO) or in ethanol (EtOH) are deposited on the surface of agar. The capacity of a compound to counter the lipo-induced stoppage of cell growth is estimated by the appearance of a halo of hem1Δ colonies at the position of the deposit of said compound after three days of culture at 28° C. (cf. Deguil et al., 2011).

The next data set concerns eIF2α. Put plainly: Western blotting of eIF2α phosphorylation (UPR) in BRIN-BD11 cells. It counts as cell-based, rat. The following applies: BRIN-BD11, palmitic acid 200 μM. The method, then:
The BRIN-BD11 pancreatic β-cells were cultivated in controlled conditions or in the presence of an exogenous source of saturated fatty acids (palmitic acid 200 μM), as described by Dhayal& Morgan (2011) in order to generate conditions of lipotoxicity with or without addition of OAG or LPA.
FIG. 7B—The rates of phosphorylation of eIF2α were also analyzed under different conditions by Western blotting method, in the absence (Ø) or in the presence of OAG or LPA and normalized with quantities of total eIF2α. […] A.U.: arbitrary units.
The cells BRIN-BD11 are seeded at a density of 0.5×10^5 cells/mL in T25 flasks for 24 h. As indicated here above, the complete medium is then replaced by an equivalent devoid of FCS but containing the lipid reagents of interest. […] In a second stage, the membranes are stripped with the buffer Re-Blot Plus-Strong (Millipore) and then probed a second time with total anti-eIF2α antibodies (CellSignalling (New EnglandBiolabs) diluted to 1/1000th. The analysis by densitometry of the relative abundance of the phosphorylated and non-phosphorylated forms of the protein eIF2α is done with the Fluor-S Multi-imager analysis system combined with the software program Quantify One (Biorad UK Ltd).
A general note: A western blot detects proteins with antibodies after separation by electrophoresis.

Another data set has as its system QM strain. Put plainly: Toxicity test on QM strain (growth inhibition haloes). It counts as cell-based, Saccharomyces cerevisiae. As to conditions: after three days; for toxicity for cells that do not synthesize triglycerides: QM strain on agar medium; for haloes of growth inhibition (absence of colonies): QM strain, 5 μl drops on agar. As for the experimental part: 5 μl drops of OAG, LPA or oleic acid were deposited, from stock solutions in the concentrations indicated, on the surface of an agar medium on which the QM strain had been preliminarily spread. […] These haloes are on the contrary not observed in the presence of LPA and OAG.
At the same time, wild strains (WT) and QM are cultivated in aerobic conditions under stirring and at 28° C., in a YPG liquid medium before seeding 3500 cells per cm^2 of YPG+agar 2% (m/v). Following this transfer to solid medium, 1 μL drops of solutions of different compounds at 1, 10 and 100 mM in DMSO or EtOH are deposited on the surface of the agar. Separately, deposits of DMSO and EtOH are also made in order to assess the intrinsic toxicity of these two solvents. After three days of culture of 28° C., the toxicity of the tested compounds is evaluated by comparing the diameters of the growth inhibition haloes obtained for the deposits of undissolved solvents with those of the deposits of different concentrations of compounds tested.

For the compound `CCCCCCCC/C=C\CCCCCCCC(=O)OC[C@@H](O)COP(=O)(O)O` [LPA, 1-oleoyl-sn-glycerol-3-phosphate], the “restoration of growth of lipo-intoxicated hem1Δ yeasts (formation of colonies)” value in the data set on hem1Δ yeasts is given as “restore the growth”. Further, the “UPR induction (rate of phosphorylation of eIF2α normalized to total eIF2α)” value in the data set with eIF2α is “reducing the induction rate of UPR”. Further, in the data set on QM strain, the “toxicity for cells that do not synthesize triglycerides” value was “not toxic” and the “haloes of growth inhibition (absence of colonies)” value was “not observed”.
Turning to `CCCCCCCC/C=C\CCCCCCCC(=O)OC[C@H](CO)OC(C)=O` [OAG, 1-oleoyl-2-acetyl-sn-glycerol], the “restoration of growth of lipo-intoxicated hem1Δ yeasts (formation of colonies)” value with hem1Δ yeasts is recorded as “restore the growth”. Moreover, the “UPR induction (rate of phosphorylation of eIF2α normalized to total eIF2α)” value in the data set on eIF2α is on record as “reducing the induction rate of UPR; also recorded: reduces the UPR”. Further, in the data set on QM strain, the “toxicity for cells that do not synthesize triglycerides” value was “not toxic” and the “haloes of growth inhibition (absence of colonies)” value is recorded as “not observed”.
